Results: patent US20240247069A1, “FGFR3 BINDING MOLECULES AND METHODS OF USE THEREOF” (Regeneron Pharmaceuticals, Inc., priority 2023, published 2024)

Key:
Type in all cases: cell-based
Conditions in all cases: FGF1/heparin, 72 hours
[1] = system: BaF3 cells expressing FGFR3 V557L; test: BaF3 cell proliferation, FGFR3 V557L
Excerpt: (§1) cDNA expressing FGFR3 mutants (S249C, S248C, Y375C, V555M, V555L, S249C+V555M, or S249C+V555L) were synthesized and cloned into pLVX Lenti-viral vector (Thermo Fisher). Viral particles were generated by lipofectamine transfection of LentiX 293T cells using Lenti-X packaging single shots following manufacturer's protocol (Clontech/Takara) and concentrated using Lenti-X concentrator and titer determined using Lenti-X p24 rapid titer kit (Clontech/Takara). BaF3 cells were transduced with virus at ˜0.3 MOI.
(§2) For cell proliferation assays, engineered BaF3/hFGFR3 cells grown in complete medium were washed and plated in IL-3-free culture media±5 μg/ml heparin and 1 nM human FGF1. Cells were plated out at 1×10^5 cells/well into 96-well plates, followed by the addition of 1:3 serially diluted antibodies as indicated in figures. After addition of antibodies, cells were incubated at 37° C. for 72 h followed by the addition of CellTiter-Glo™ (Promega) reagent. The luminescent signal was detected by Envision plate reader (PerkinElmer). Data was analyzed using Prism software (GraphPad). […]

[2] = system: BaF3 cells expressing FGFR3 S249C+V557L; test: BaF3 cell proliferation, FGFR3 S249C+V557L
Excerpt: as §1, §2

[3] = system: BaF3 cells expressing FGFR3 S249C+V557M; test: BaF3 cell proliferation, FGFR3 S249C+V557M
Excerpt: as §1, §2

[4] = system: BaF3 cells expressing FGFR3 V557M; test: BaF3 cell proliferation, FGFR3 V557M
Excerpt: as §1, §2

AZD4547 [reference compound]
ineffective: effect on growth of BaF3 cells expressing FGFR3 V557L [1] | effect on growth of BaF3 cells expressing FGFR3 S249C+V557L [2] | effect on growth of BaF3 cells expressing FGFR3 S249C+V557M [3] | effect on growth of BaF3 cells expressing FGFR3 V557M [4]
